# Measurements taken from patent publication US20020136744A1, “Sustained release drug dispersion delivery device” (Merck & Co., Inc., priority 1999, published 2002).
# How the values were obtained:
# [1] = pH-dependent solubility of the beneficial agent; format: physicochemical
# Procedure: The formulation of the instant invention was prepared using 1-(3-chlorophenyl)-4-[1-(4-cyanobenzyl)-5-imidazolyl methyl]-2-piperazinone is used as the beneficial agent. The solubility of the beneficial agent decreases from about 1 g/mL at pH 1 to about 70 μg/mL at pH 7, with the solubility cliff occurring at about pH 3.5.
# [2] = in vitro release of the drug from the tablets, USP Apparatus II; format: physicochemical; conditions: for release rate / release mechanism: without a pH modulator
# Procedure: The in vitro release of the drug from the tablets prepared as above was determined using USP Apparatus II, paddle speed 75 rpm, at 37° C. in 900 ml of dissolution media with pH values 1.2, 1.7 and 6.8. The pH 1.2 and 1.7 media consisted of 0.1N HCl solution adjusted to the appropriate pH by the addition of sodium hydroxide. The pH 6.8 medium consisted of 0.7% sodium dodecyl sulfate in 10 mM phosphate buffer.
structure (smiles),measurement,setting,value
N#Cc1ccc(Cn2cncc2CN2CCN(c3cccc(Cl)c3)C(=O)C2)cc1 [1-(3-chlorophenyl)-4-[1-(4-cyanobenzyl)-5-imidazolylmethyl]-2-piperazinone],solubility cliff (pH at which it occurs),[1],~3.5 pH
same,solubility (in words),[1]; low pH levels (less than about 2),very soluble
same,solubility (in words),[1]; near neutral pH levels (greater than about 5),practically insoluble
same,solubility,"[1]; pH 1, simulated gastric fluid",~1000 mg/mL
same,solubility,"[1]; pH 7, aqueous buffer",~0.07 mg/mL
same,release rate,"[2]; with a pH modulator, over a range of pH levels (FIG. 2)",relatively similar over a range of pH levels
same,release rate / release mechanism,[2]; media pH about 2.2 to about 6.8 (FIG. 1),controlled by the gel extrusion mechanism
same,release rate / release mechanism,[2]; pH about 1.2 (FIG. 1),dominated by dissolution and diffusion
same,release rate / release mechanism,[2]; pH about 1.7 (FIG. 1),both the dissolution/diffusion and gel extrusion mechanisms are repressed
